Test results published in ChEMBL document CHEMBL1201862, “PubChem BioAssay data set” (2004).
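Following 48 hours of exposure in 96-well plates, responses at five concentrations were used to interpolate endpoints linearly. At the GI50, growth is halved.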 The source made the active and inactive calls. Cut-off read from the data, not from the text of the source: active = GI50 up to about 1.1 µM and inactive = higher.

Legend:
Experiment in all cases: DTP human tumour cell line panel, 48 h
MDA-MB-435 = system: MDA-MB-435
786-0 = system: 786-0
A498 = system: A498
HCT-116 = system: HCT-116
U-251 = system: U-251
NCI-H522 = system: NCI-H522
CAKI-1 = system: CAKI-1
K562 = system: K562
OVCAR-5 = system: OVCAR-5
ACHN = system: ACHN
DU-145 = system: DU-145
COLO 205 = system: COLO 205
SK-OV-3 = system: SK-OV-3
BT-549 = system: BT-549
A549 = system: A549
IGROV-1 = system: IGROV-1
MCF7 = system: MCF7
NCI-H460 = system: NCI-H460
MOLT-4 = system: MOLT-4
HL-60 = system: HL-60

Measured: GI50

COc1ccc(/C=C(\NC(=O)c2ccccc2)C(=O)NN(C)c2ccnc3cc(Cl)ccc23)cc1OC
inactive: MDA-MB-435 21.3 µM | 786-0 27.6 µM | A498 > 100 µM | HCT-116 34.6 µM | U-251 19.7 µM | NCI-H522 21.8 µM | CAKI-1 28.8 µM | K562 18.9 µM | OVCAR-5 45.9 µM | ACHN 26.1 µM | DU-145 27.2 µM | COLO 205 24.2 µM | SK-OV-3 > 100 µM | BT-549 20.4 µM | A549 33 µM | IGROV-1 17.2 µM | MCF7 19.8 µM | NCI-H460 19 µM | MOLT-4 18.2 µM

O=c1n(-c2ccccc2)c(=O)n2n1C1CCC2CC1
inactive: MDA-MB-435 > 100 µM | 786-0 > 100 µM | A498 > 100 µM | HCT-116 > 100 µM | U-251 > 100 µM | CAKI-1 > 100 µM | K562 > 100 µM | OVCAR-5 > 100 µM | ACHN > 100 µM | DU-145 > 100 µM | COLO 205 > 100 µM | SK-OV-3 > 100 µM | BT-549 > 100 µM | HL-60 > 100 µM | A549 > 100 µM | IGROV-1 > 100 µM | MCF7 > 100 µM | NCI-H460 > 100 µM | MOLT-4 > 100 µM

O=c1onc2c3ccccc3ncn12
inactive: MDA-MB-435 > 100 µM | 786-0 > 100 µM | A498 > 100 µM | HCT-116 > 100 µM | U-251 > 100 µM | NCI-H522 > 100 µM | CAKI-1 > 100 µM | K562 > 100 µM | OVCAR-5 > 100 µM | ACHN > 100 µM | DU-145 > 100 µM | COLO 205 > 100 µM | SK-OV-3 > 100 µM | BT-549 > 100 µM | A549 > 100 µM | IGROV-1 > 100 µM | MCF7 > 100 µM | MOLT-4 > 100 µM

NC(=O)c1csc(C2(O)COC(CO)C2O)n1 (stereo not drawn)
inactive: MDA-MB-435 > 100 µM | 786-0 > 100 µM | A498 > 100 µM | HCT-116 > 100 µM | U-251 > 100 µM | NCI-H522 > 100 µM | CAKI-1 > 100 µM | OVCAR-5 > 100 µM | ACHN > 100 µM | DU-145 > 100 µM | COLO 205 > 100 µM | SK-OV-3 > 100 µM | BT-549 > 100 µM | A549 > 100 µM | IGROV-1 > 100 µM | MCF7 > 100 µM | NCI-H460 > 100 µM
